Measurements reported in the supplement of paper PMC10733146.

Tests used:
Experiment in all cases: viability relative to DMSO control (fraction); higher = less drug effect (more viable cells)
Settings in all cases: 48 h
[1] = tested on: primary ALL patient cells (S088)
Summary of the method: (§1)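 In 384-well plates with compounds pre-plated at five concentrations (one well per concentration), primary mononuclear tumour cells were plated at 4 × 10^4 cells per well. The cells came from blood or bone marrow by Ficoll isolation or from processed lymph node, and were used fresh or cryopreserved. Culture ran for 48 h at 37 °C and 5% CO2 in RPMI-1640 containing penicillin/streptomycin, L-glutamine and human serum. Viability was read as CellTiter-Glo luminescence, normalised to the median of 16 inner DMSO wells.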

[2] = tested on: primary CLL patient cells (S031)
Summary of the method: as §1

[3] = tested on: primary AML patient cells (S079)
Summary of the method: as §1

[4] = tested on: primary MCL patient cells (S063)
Summary of the method: as §1

[5] = tested on: primary AML patient cells (S056)
Summary of the method: as §1

[6] = tested on: primary AML patient cells (S072)
Summary of the method: as §1

[7] = tested on: primary AML patient cells (S006)
Summary of the method: as §1

[8] = tested on: primary ALL patient cells (S048)
Summary of the method: as §1

[9] = tested on: primary AML patient cells (S089)
Summary of the method: as §1

[10] = tested on: primary AML patient cells (S055)
Summary of the method: as §1

[11] = tested on: primary AML patient cells (S071)
Summary of the method: as §1

[12] = tested on: primary AML patient cells (S060)
Summary of the method: as §1

[13] = tested on: primary DLBCL patient cells (S082)
Summary of the method: as §1

[14] = tested on: primary CLL patient cells (S043)
Summary of the method: as §1

`COc1cccc2c1C(=O)c1c(O)c3c(c(O)c1C2=O)C[C@@](O)(C(C)=O)C[C@@H]3O[C@H]1C[C@H](N)[C@H](O)[C@H](C)O1` [Daunorubicin] gave a viability ([1]; 0.0016 µM) of 1.13, a viability ([1]; 0.008 µM) of 0.849 and a viability ([1]; 0.04 µM) of 0.235. The viability ([1]; 0.2 µM) was 0.0841, the viability ([1]; 1 µM) was 0.0273 and the viability ([2]; 0.0016 µM) was 0.982. The viability ([2]; 0.008 µM) was 0.809, the viability ([2]; 0.04 µM) was 0.265 and the viability ([2]; 0.2 µM) was 0.0431. For the same compound, the viability ([2]; 1 µM) was 0.0162, the viability ([3]; 0.0016 µM) was 1.03 and the viability ([3]; 0.008 µM) was 1.08. The viability ([3]; 0.04 µM) was 0.78, the viability ([3]; 0.2 µM) was 0.659 and the viability ([3]; 1 µM) was 0.0276. For the same compound, the viability ([4]; 0.0016 µM) was 1.2, the viability ([4]; 0.008 µM) was 1.14 and the viability ([4]; 0.04 µM) was 0.979. The viability ([4]; 0.2 µM) was 0.528, the viability ([4]; 1 µM) was 0.0178 and the viability ([5]; 0.0016 µM) was 0.96. It also gave a viability ([5]; 0.008 µM) of 0.881, a viability ([5]; 0.04 µM) of 0.258 and a viability ([5]; 0.2 µM) of 0.146. The viability ([5]; 1 µM) was 0.0683, the viability ([6]; 0.0016 µM) was 1.18 and the viability ([6]; 0.008 µM) was 1.04. For the same compound, the viability ([6]; 0.04 µM) was 0.844, the viability ([6]; 0.2 µM) was 0.589 and the viability ([6]; 1 µM) was 0.0642. For the same compound, the viability ([7]; 0.0016 µM) was 1.19, the viability ([7]; 0.008 µM) was 0.923 and the viability ([7]; 0.04 µM) was 0.248. It also gave a viability ([7]; 0.2 µM) of 0.075, a viability ([7]; 1 µM) of 0.0282 and a viability ([8]; 0.0016 µM) of 1.02. It also gave a viability ([8]; 0.008 µM) of 0.731, a viability ([8]; 0.04 µM) of 0.12 and a viability ([8]; 0.2 µM) of 0.0694. The viability ([8]; 1 µM) was 0.0144, the viability ([9]; 0.0016 µM) was 1.09 and the viability ([9]; 0.008 µM) was 1.16. For the same compound, the viability ([9]; 0.04 µM) was 0.289, the viability ([9]; 0.2 µM) was 0.132 and the viability ([9]; 1 µM) was 0.0299. It also gave a viability ([10]; 0.0016 µM) of 1.03, a viability ([10]; 0.008 µM) of 1.05 and a viability ([10]; 0.04 µM) of 0.991. The viability ([10]; 0.2 µM) was 0.904, the viability ([10]; 1 µM) was 0.0407 and the viability ([11]; 0.0016 µM) was 1.04. It also gave a viability ([11]; 0.008 µM) of 0.272, a viability ([11]; 0.04 µM) of 0.128 and a viability ([11]; 0.2 µM) of 0.118. It also gave a viability ([11]; 1 µM) of 0.095, a viability ([12]; 0.0016 µM) of 1.16 and a viability ([12]; 0.008 µM) of 1.14. For the same compound, the viability ([12]; 0.04 µM) was 1.07, the viability ([12]; 0.2 µM) was 1.14 and the viability ([12]; 1 µM) was 0.0333. The viability ([13]; 0.0016 µM) was 1.1, the viability ([13]; 0.008 µM) was 1.07 and the viability ([13]; 0.04 µM) was 0.838. The viability ([13]; 0.2 µM) was 0.714, the viability ([13]; 1 µM) was 0.0208 and the viability ([14]; 0.0016 µM) was 1.11. For the same compound, the viability ([14]; 0.008 µM) was 1.12, the viability ([14]; 0.04 µM) was 0.834 and the viability ([14]; 0.2 µM) was 0.33. It also gave a viability ([14]; 1 µM) of 0.0261.

For `Nc1ncn([C@H]2C[C@H](O)[C@@H](CO)O2)c(=O)n1` [Decitabine (Dacogen)], the viability ([1]; 0.024 µM) was 0.978, the viability ([1]; 0.12 µM) was 0.886 and the viability ([1]; 0.6 µM) was 0.982. The viability ([1]; 3 µM) was 0.778, the viability ([1]; 15 µM) was 0.799 and the viability ([2]; 0.024 µM) was 1.02. For the same compound, the viability ([2]; 0.12 µM) was 0.916, the viability ([2]; 0.6 µM) was 1.04 and the viability ([2]; 3 µM) was 0.869. For the same compound, the viability ([2]; 15 µM) was 0.965, the viability ([3]; 0.024 µM) was 1.02 and the viability ([3]; 0.12 µM) was 0.953. The viability ([3]; 0.6 µM) was 0.989, the viability ([3]; 3 µM) was 0.889 and the viability ([3]; 15 µM) was 0.814. It also gave a viability ([4]; 0.024 µM) of 1.03, a viability ([4]; 0.12 µM) of 0.985 and a viability ([4]; 0.6 µM) of 1.03. The viability ([4]; 3 µM) was 0.974, the viability ([4]; 15 µM) was 0.977 and the viability ([5]; 0.024 µM) was 0.971. For the same compound, the viability ([5]; 0.12 µM) was 0.876, the viability ([5]; 0.6 µM) was 0.912 and the viability ([5]; 3 µM) was 0.8. It also gave a viability ([5]; 15 µM) of 0.766, a viability ([6]; 0.024 µM) of 1.02 and a viability ([6]; 0.12 µM) of 0.93. It also gave a viability ([6]; 0.6 µM) of 0.964, a viability ([6]; 3 µM) of 0.83 and a viability ([6]; 15 µM) of 0.811. For the same compound, the viability ([7]; 0.024 µM) was 0.971, the viability ([7]; 0.12 µM) was 0.877 and the viability ([7]; 0.6 µM) was 1. For the same compound, the viability ([7]; 3 µM) was 0.747, the viability ([7]; 15 µM) was 0.716 and the viability ([8]; 0.024 µM) was 0.967. For the same compound, the viability ([8]; 0.12 µM) was 0.89, the viability ([8]; 0.6 µM) was 0.938 and the viability ([8]; 3 µM) was 0.843. It also gave a viability ([8]; 15 µM) of 0.82, a viability ([9]; 0.024 µM) of 0.729 and a viability ([9]; 0.12 µM) of 1.06. For the same compound, the viability ([9]; 0.6 µM) was 0.632, the viability ([9]; 3 µM) was 1.22 and the viability ([9]; 15 µM) was 0.642. It also gave a viability ([10]; 0.024 µM) of 1.05, a viability ([10]; 0.12 µM) of 0.939 and a viability ([10]; 0.6 µM) of 1.03. It also gave a viability ([10]; 3 µM) of 0.972, a viability ([10]; 15 µM) of 1.02 and a viability ([11]; 0.024 µM) of 0.995. For the same compound, the viability ([11]; 0.12 µM) was 0.948, the viability ([11]; 0.6 µM) was 0.934 and the viability ([11]; 3 µM) was 0.792. For the same compound, the viability ([11]; 15 µM) was 0.756, the viability ([12]; 0.024 µM) was 1.01 and the viability ([12]; 0.12 µM) was 0.975. It also gave a viability ([12]; 0.6 µM) of 1.02, a viability ([12]; 3 µM) of 0.99 and a viability ([12]; 15 µM) of 1.01. For the same compound, the viability ([13]; 0.024 µM) was 0.993, the viability ([13]; 0.12 µM) was 0.936 and the viability ([13]; 0.6 µM) was 0.973. For the same compound, the viability ([13]; 3 µM) was 0.908, the viability ([13]; 15 µM) was 0.967 and the viability ([14]; 0.024 µM) was 0.965. For the same compound, the viability ([14]; 0.12 µM) was 0.976, the viability ([14]; 0.6 µM) was 0.975 and the viability ([14]; 3 µM) was 0.959. It also gave a viability ([14]; 15 µM) of 0.899.
